Measurements published in patent US12037324B2, “Biarylmethyl heterocycles” (Université de Montréal, priority 2016, dated 2024).
pEC50: −log10 of the molar value. Counter-ions that a name gives are not always drawn. Like-named read-outs stand apart in the source and are kept apart here.

What was measured:
Format in all cases: cell-based
[1] = target: T1, AGTR1 (Homo sapiens, UniProt P30556); test: DiscoveRx β-arrestin2 recruitment assay (enzyme complementation, Pathunter CHO-K1 AGTR1 β-arrestin cell line)
T1 construct: host or cells: Pathunter CHO-K1 AGTR1 β-arrestin cell line (CHO-K1)
T1 sequence (P30556 1-359): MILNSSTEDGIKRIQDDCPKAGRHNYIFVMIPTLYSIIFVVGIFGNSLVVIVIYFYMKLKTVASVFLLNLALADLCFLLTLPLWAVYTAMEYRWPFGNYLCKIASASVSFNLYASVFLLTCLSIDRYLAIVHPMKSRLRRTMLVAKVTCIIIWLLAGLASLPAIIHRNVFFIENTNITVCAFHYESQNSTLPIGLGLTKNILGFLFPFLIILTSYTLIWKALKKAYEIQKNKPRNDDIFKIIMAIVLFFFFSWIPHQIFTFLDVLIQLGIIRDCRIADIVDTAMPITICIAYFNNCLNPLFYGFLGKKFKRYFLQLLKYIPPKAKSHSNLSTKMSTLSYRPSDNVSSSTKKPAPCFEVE
Method in brief: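 Chemiluminescent enzyme-complementation read-out of β-arrestin2 recruitment to AGTR1 in engineered CHO-K1 cells after 90 min compound exposure at 37° C. Values are 4-parameter logistic EC50s in agonist mode, IC50s in antagonist mode, with efficacy relative to the maximal All response.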

[2] = target: T2, hAT1R (Homo sapiens, UniProt P30556); test: BRET β-arrestin2 biosensor assay, higher receptor expression (hAT1R 5 ng/well), HEK293 cells; conditions: for pEC50: High AT1R Expression
T2 sequence (P30556 1-359): T1 sequence (P30556 1-359)

[3] = target: T2, hAT1R; test: BRET Gq biosensor assay, agonist response, HEK293 cells; conditions: section of the 42nd table directly before the BRET P63 section
Method in brief: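 Agonist EC50 derived from a 4-parameter fit of BRET2 ratio (GFP 515 nm/Rluc 410 nm), scaled between unstimulated control and maximal AngII response. Readings taken 5 min after compound addition at room temperature, with 2 μM coelenterazine, in HEK293 cells expressing hAT1R, Gαq-Rluc, Gβ1 and GFP-Gγ1 (transfected two days earlier).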

[4] = DiscoveRx β-arrestin2 recruitment
[5] = DiscoveRx β-arrestin2 recruitment, maximal response

| SMILES | pEC50 [1, 4] | DiscoveRx β-arrestin2 Ymax (%) [1, 5] | BRET β-Arrestin2 High AT1R Expression Ymax (%) [2] | pEC50 [2] | pEC50 [3] | DiscoveRx β-arrestin2 Ymax (%) [1, 4] | pEC50 [1] |
| --- | --- | --- | --- | --- | --- | --- | --- |
| CCCCc1ncc(C(=O)O)n1Cc1ccc(-c2cc(-c3ccccc3)ccc2-c2nn[nH]n2)cc1 [Example 345, 1-((6′-(2H-tetrazol-5-yl)-[1,1′:3′,1″-terphenyl]-4-yl)methyl)-2-butyl-1H-imidazole-5-carboxylic acid, TFA salt] | 7.74 | 44.8% | 92.0% | 7.75 | 7.90 |  |  |
| CCCCC(=O)N(Cc1ccc(-c2cc(Oc3cccc(OC(F)(F)F)c3)ccc2-c2nn[nH]n2)cc1)C1(C(=O)O)CCCCC1 [Example 287] | 6.76 | 30.5% | 45.9% | 7.27 | < 4.00 |  |  |
| CCCCC(=O)N(Cc1ccc(-c2cc(-c3ccccc3)ccc2-c2nn[nH]n2)cc1)C1(C(=O)O)CCCC1 [Example 271] | 6.42 | 45.5% | 80.3% | 6.25 | 6.23 |  |  |
| CCCc1nc(C(C)(C)O)c(C(=O)O)n1Cc1ccc(-c2cc(-c3ccccc3)ccc2-c2nn[nH]n2)cc1 [Example 402, sodium 1-((6′-(2H-tetrazol-5-yl)-[1,1′:3′,1″-terphenyl]-4-yl)methyl)-4-(2-hydroxypropan-2-yl)-2-propyl-1H-imidazole-5-carboxylate] | 8.00 | 57.0% | 77.8% | 7.75 | 7.19 |  |  |
| CCCCc1ncc(C(=O)NC2CCCCCC2)n1Cc1ccc(-c2cc(-c3ccccc3)ccc2-c2nn[nH]n2)cc1 [Example 362] | 6.91 | 49.8% | 97.0% | 7.58 | 7.47 |  |  |
| CCCCC(=O)N(Cc1ccc(-c2cc(Oc3cccnc3)ccc2-c2nn[nH]n2)cc1)C1(C(=O)O)CCCCC1 [Example 286] | 6.95 | 35.8% | 45.3% | 7.33 | 6.52 |  |  |
| CCCCc1ncc(C(=O)NCc2nccs2)n1Cc1ccc(-c2cc(-c3ccccc3)ccc2-c2nn[nH]n2)cc1 [Example 356] | 7.56 | 41.5% | 84.7% | 7.75 | 7.44 |  |  |
| CCCCc1ncc(C(=O)NCc2cnccn2)n1Cc1ccc(-c2cc(-c3ccccc3)ccc2-c2nn[nH]n2)cc1 [Example 359] | 7.76 | 43.5% | 90.8% | 7.82 | 7.40 |  |  |
| CCCCC1=NC2(CCCC2)C(=O)N1Cc1ccc(-c2cc(-c3ccccc3)ccc2-c2noc(=O)[nH]2)cn1 [Example 453, 3-(3-(6-((2-Butyl-4-oxo-1,3-diazaspiro[4.4]non-1-en-3-yl)methyl)pyridin-3-yl)-[1,1′-biphenyl]-4-yl)-1,2,4-oxadiazol-5(4H)-one] | 7.50 |  | 95.9% | 7.89 | 7.62 | 59.5% |  |
| CCCCC(=O)N(Cc1ccc(-c2cc(-c3ccc4ncccc4c3)ccc2-c2nn[nH]n2)cc1)[C@H](C(=O)O)C(C)C [Example 441] | 7.00 |  | 64.3% | 7.24 | < 4.00 | 39.3% |  |
| CCCCC(=O)N(Cc1ccc(-c2cc(-c3ccccc3)ccc2-c2noc(=O)[nH]2)cc1)C1(C(=O)O)CCCCC1 [Example 281] | 7.38 | 47.4% | 93.1% | 7.98 | 6.64 |  |  |
| CCCCC(=O)N(Cc1ccc(-c2cc(N3CC(C)(C)c4ccccc43)ccc2-c2nn[nH]n2)cc1)[C@H](C(=O)O)C(C)C [Example 450] | 6.32 |  | 77.6% | 6.51 | 5.28 | 23.1% | < 4.00 |
| CCCCc1ncc(C(=O)NCC(C)(C)COC)n1Cc1ccc(-c2cc(-c3ccccc3)ccc2-c2nn[nH]n2)cc1 [Example 360] | 7.53 | 37.2% | 75.0% | 7.45 | < 4.00 |  |  |
| CCCCC(=O)N(Cc1ccc(-c2cc(-c3ccccc3)ccc2-c2nn[nH]n2)cc1)C1(C(=O)O)CCC(C)(C)CC1 [Example 275, 1-(N-((6′-(2H-Tetrazol-5-yl)-[1,1′:3′,1″-terphenyl]-4-yl)methyl)pentan-amido)-4,4-dimethylcyclohexanecarboxylic acid] | 7.58 | 50.9% | 71.5% | 7.67 | < 4.00 |  |  |
| CCCCc1ncc(C(=O)NC2CCCCC2)n1Cc1ccc(-c2cc(-c3ccccc3)ccc2-c2nn[nH]n2)cc1 [Example 354] | 7.22 | 48.3% | 99.5% | 7.71 | 7.34 |  |  |
| CCCCC(=O)N(Cc1ccc(-c2cc(-c3ccccc3)ccc2-c2nn[nH]n2)cc1)C1(C(=O)O)CC1 [Example 269] | 5.18 | 14.2% | 58.7% | 4.51 | < 4.00 |  |  |
| CCCCc1ncc(C(=O)NC)n1Cc1ccc(-c2cc(-c3ccccc3)ccc2-c2nn[nH]n2)cc1 [Example 382] | 7.88 | 27.6% | 67.5% | 7.33 | < 4.00 |  |  |
| CCCCC(=O)N(Cc1ccc(-c2cc(-c3ccc(NC(C)=O)cc3)ccc2-c2nn[nH]n2)cc1)[C@H](C(=O)O)C(C)C [Example 440] | 6.62 |  | 50.1% | 4.55 | 6.23 | 13.6% |  |
| CCCCC(=O)N(Cc1ccc(-c2cc(Oc3ccccc3)ccc2-c2nn[nH]n2)cc1)C1(C(=O)O)CCCCC1 [Example 285, 1-(N-((5′-Phenoxy-2′-(2H-tetrazol-5-yl)-[1,1′-biphenyl]-4-yl)methyl)pentanamido)cyclohexanecarboxylic acid] | 7.18 | 24.8% | 33.4% | 7.24 | 5.81 |  |  |
| CCCCc1ncc(C(=O)NCCO)n1Cc1ccc(-c2cc(-c3ccccc3)ccc2-c2nn[nH]n2)cc1 [Example 348] | 8.14 | 50.9% | 85.4% | 7.46 | 7.05 |  |  |
| CCCCc1ncc(C(=O)NC(C)(C)C)n1Cc1ccc(-c2cc(-c3ccccc3)ccc2-c2nn[nH]n2)cc1 [Example 352] | 6.63 | 35.7% | 62.2% | 6.54 | 5.93 |  |  |
| CCCCC(=O)N(Cc1ccc(-c2cc(-c3ccccc3)ccc2-c2nn[nH]n2)nc1)[C@H](C(=O)O)C(C)C [Example 430] | 7.48 |  | 78.9% | 7.15 | 6.56 | 55.2% |  |
